Literature values in patent US20070111204A1, “Methods for detecting nucleic acid variations” (priority 2003, published 2007).

Test system: CGRP
Conditions: marmoset, electrical stimulation of the trigeminal ganglion (Doods et al. 2000)

NCCCC[C@H](NC(=O)[C@@H](Cc1cc(Br)c(O)c(Br)c1)NC(=O)N1CCC(N2Cc3ccccc3NC2=O)CC1)C(=O)N1CCN(c2ccncc2)CC1 [BIBN4096BS]
effect on increase of facial blood flow: blocked
